Data: patent EP3260120B1, “PHARMACOLOGICAL ADJUVANTS FOR THERMAL ABLATION OF CANCER” (Blasi, Paolo, priority 2016, dated 2017)

System: human colon adenocarcinoma HT-29 cell line
Test: thermosensitizing or killing effect on HT-29 cells (cell count, ethidium bromide / fluorescein diacetate viability)
Format: cell-based
Settings: for Viability (%) / Total cells (x10^6) / Living cells (x10^6): mean ± S.D.; for Living cells (x10^6): viability % applied to total cells
Description: The thermosensitizing or killing effect of omeprazole in acidic solution and that of liposome formulations was tested on human colon adenocarcinoma HT-29 cell line (Istituto Zooprofilattico Ubertini, Brescia, Italy). The cells were incubated under standard conditions: 5% CO2, 37°C, in McCOY'S 5A medium (Sigma-Aldrich, Milan, Italy) at pH 7.4 with sodium bicarbonate, antibiotics and antifungals (penicillin 100 U/mL, streptomycin 100 U/mL, amphotericin B 0.25 µg/mL) and 10% foetal bovine serum. A trypsin solution with EDTA was employed to detach the cells from the culture plates. The experimental protocol is reported in the following scheme: [formula] In detail: • 1)-HT-29 cells were seeded in 6-well culture plates (Falcon) with a 10 cm^2 area at a 250,000 cell/well concentration and 5 mL medium as indicated above. • 2)-After 72 h plating, the culture medium, with initial buffered pH=7.4, was replaced with unbuffered medium (without sodium bicarbonate), and 12 wells were maintained at 37°C, while 12 wells were destined for thermal treatment. In each group, three wells were treated with omeprazole in acidic solution, three with LUVs with acidic core and three with LUVs loaded with omeprazole in acidic solution, according to the concentrations reported in the previous scheme. […] At the end of the thermal treatment the cells were brought back into the incubator at 37°C. • 4)-After 24 h, the following parameters were evaluated for all the wells: Total number of cells (living and dead). After detachment of the cell monolayer with trypsin and EDTA, the total number of cells (living + dead) in each well was determined using a Countess cell counting machine (Invitrogen, Milan, Italy). Cell viability (%). Cell viability was evaluated by incubation of a detached cell suspension with ethidium bromide and fluorescein diacetate (Sigma-Aldrich, Milan, Italy). The cells were analysed with a fluorescent optical microscope (Olympus BX-41, Tokyo, Japan) using the filter for fluorescein. The images were recorded with an F-view digital camera (Olympus) and processed with F-view software (Olympus). With this method, the living cells are stained green and the dead cells red, as fluorescein diacetate is internalized by living cells and hydrolysed by cytoplasm esterases into the corresponding fluorochrome, fluorescein, which emits an intense green fluorescence, whereas ethidium bromide only penetrates cells with altered membranes, binding to nucleic acids and producing a red fluorescence. The living and dead cells were counted by a semi-manual method. A minimum of three images per well were acquired in distinct areas, representative of the corresponding cell suspension. For the group maintained at 37°C, an average of 2,500 cells was counted for each treatment type (constituted by three wells representing the single treatment performed in triplicate). Since the number of cells decreases noticeably for the wells treated at 45°C for 2 h, the number of recorded images was increased (from 9 to 16), and 2,700 to 3,500 cells were counted for each treatment type (constituted by three wells representing the single treatment performed in triplicate). Living cell (green) and dead cell (red) counts were acquired by marking each cell and recording the resulting cell number with Image J software. The percentage viability of the cells counted for each sample was calculated as follows: Viability(%) = (No. of living cells)/(No. of living cells + No. of dead cells)⋅100 [formula] Total number of living cells. The endpoint of the study was the total number of tumour cells surviving the different treatments. This value was calculated for each well by applying the viability percentage obtained by semi-manual counting to the total number of cells measured by the cell-counting machine. Statistical analysis. The data were subjected to statistical analysis with the paired Student's t-test and one-way ANOVA (SigmaPlot 12.0, Systat Software Inc.) with a 95% significance level. […]

[1] = 37°C, 48 h incubation with treatment
[2] = 45°C for 2h after 24 h pre-incubation, evaluated 24 h after thermal treatment

## COc1ccc2[nH]c([S+]([O-])Cc3ncc(C)c(OC)c3C)nc2c1 (centres unmarked) [B, omeprazole]
[1]
  Viability (%): 83.3 ± 2.4%
  Living cells (x10^6): 1.53 ± 0.22 x10^6
37°C, 48 h of incubation
  decrease in number of surviving tumour cells versus untreated control: 25%
37°C, living and dead cells per well, 48 h incubation with treatment
  Total cells (x10^6): 1.83 ± 0.25 x10^6
45°C for 2 h, 24 h after heat shock
  reduction in number of living cells compared to heating only: 41%
[2]
  Total cells (x10^6): 0.66 ± 0.27 x10^6
  Viability (%): 61.5 ± 4.4%
  Living cells (x10^6): 0.40 ± 0.10 x10^6
